Data on 14 compounds can be found in ChEMBL document CHEMBL1909046, “DrugMatrix in vitro pharmacology data”.

Molecules are shown by their SMILES.

For series [1], the target named is T1, Alpha-2C adrenergic receptor (Homo sapiens, UniProt P18825).
T1 sequence (P18825 whole entry): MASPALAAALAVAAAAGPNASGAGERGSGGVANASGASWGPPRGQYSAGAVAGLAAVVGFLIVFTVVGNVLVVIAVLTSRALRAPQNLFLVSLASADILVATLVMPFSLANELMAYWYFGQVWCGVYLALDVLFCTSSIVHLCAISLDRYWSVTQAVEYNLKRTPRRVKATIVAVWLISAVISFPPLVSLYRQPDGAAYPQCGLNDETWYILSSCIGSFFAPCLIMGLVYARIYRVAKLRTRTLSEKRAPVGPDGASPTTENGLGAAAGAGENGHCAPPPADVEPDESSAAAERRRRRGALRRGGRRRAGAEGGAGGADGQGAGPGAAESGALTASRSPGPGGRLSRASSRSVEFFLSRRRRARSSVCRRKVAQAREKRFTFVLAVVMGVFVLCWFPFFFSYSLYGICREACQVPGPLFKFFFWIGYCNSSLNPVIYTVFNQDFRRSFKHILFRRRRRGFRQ
Nature of the series: DRUGMATRIX: Adrenergic Alpha-2C radioligand binding (ligand: [3H] MK-912). The series is classed as cell membranes, Sf9, Membrane. The note with it: sf9.

A short description of series [2]: DRUGMATRIX: Calcium Channel Type L, Benzothiazepine radioligand binding (ligand: [3H] Diltiazem). Type of series: cell membranes, Rattus norvegicus, Wistar, Brain, Membrane. The note with it: Not Active = under 50% inhibition at 10 µM.
The nature of series [3]: DRUGMATRIX: Serotonin (5-Hydroxytryptamine) 5-HT3 radioligand binding (ligand: [3H] GR-65630). The following applies: hek293; Not Active = under 50% inhibition at 10 µM. The series is classed as cell membranes, Membrane.
Series [4] can be described thus: DRUGMATRIX: Glutamate, Kainate radioligand binding (ligand: [3H] Kainic acid). The series is classed as cell membranes, Rattus norvegicus, Wistar, Brain, Membrane. The note with it: Not Active = under 50% inhibition at 10 µM.
The target in series [5] is T2, Polyunsaturated fatty acid lipoxygenase ALOX15 (Oryctolagus cuniculus, UniProt P12530).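 Also: inhibition of 15-lipoxygenase enzyme activity measured with linoleic acid as the substrate; in other assays of this panel Not Active means under 50% inhibition at 10 µM.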
T2 sequence (P12530 whole entry): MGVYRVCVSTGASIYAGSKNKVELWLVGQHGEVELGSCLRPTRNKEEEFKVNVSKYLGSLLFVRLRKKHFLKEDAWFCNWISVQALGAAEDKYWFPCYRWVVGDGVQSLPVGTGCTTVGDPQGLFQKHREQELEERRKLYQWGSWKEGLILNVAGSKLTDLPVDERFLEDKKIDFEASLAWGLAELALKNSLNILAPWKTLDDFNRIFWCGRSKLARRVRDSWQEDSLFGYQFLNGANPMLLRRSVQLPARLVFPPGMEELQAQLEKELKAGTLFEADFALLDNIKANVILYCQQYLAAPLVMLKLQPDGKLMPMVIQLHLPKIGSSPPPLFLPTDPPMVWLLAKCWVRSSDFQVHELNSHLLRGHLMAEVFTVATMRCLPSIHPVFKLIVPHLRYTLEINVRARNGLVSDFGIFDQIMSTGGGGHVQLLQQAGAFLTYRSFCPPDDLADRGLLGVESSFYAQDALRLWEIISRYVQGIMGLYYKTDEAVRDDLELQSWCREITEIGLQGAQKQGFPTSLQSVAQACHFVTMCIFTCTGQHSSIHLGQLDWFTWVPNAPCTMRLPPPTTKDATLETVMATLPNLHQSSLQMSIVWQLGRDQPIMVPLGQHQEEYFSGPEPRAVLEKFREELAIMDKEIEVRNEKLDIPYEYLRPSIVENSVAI
Nature of the series: biochemical. The series is classed as tissue-based, Reticulocytes.

For the next series, the target named is T3, Cytochrome P450 2A6 (Homo sapiens, UniProt P11509). Also: in other assays of this panel Not Active means under 50% inhibition at 10 µM.
T3 sequence (P11509 whole entry): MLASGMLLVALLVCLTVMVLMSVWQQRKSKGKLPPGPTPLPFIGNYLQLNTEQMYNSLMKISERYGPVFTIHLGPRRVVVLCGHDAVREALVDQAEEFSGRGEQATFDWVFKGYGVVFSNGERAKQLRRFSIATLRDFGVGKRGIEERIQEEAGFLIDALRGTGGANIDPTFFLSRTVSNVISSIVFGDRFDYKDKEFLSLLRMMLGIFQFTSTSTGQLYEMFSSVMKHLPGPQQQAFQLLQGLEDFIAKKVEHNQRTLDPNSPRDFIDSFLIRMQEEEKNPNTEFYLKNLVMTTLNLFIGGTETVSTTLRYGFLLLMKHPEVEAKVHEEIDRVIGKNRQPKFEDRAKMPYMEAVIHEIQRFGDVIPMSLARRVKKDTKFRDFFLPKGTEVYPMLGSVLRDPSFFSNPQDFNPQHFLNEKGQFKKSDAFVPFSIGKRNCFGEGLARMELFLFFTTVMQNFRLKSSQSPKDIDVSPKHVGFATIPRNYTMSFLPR
The following applies: bti-tn-5b1-4.

As a reminder, the IC50 is the concentration that inhibits the measured activity by half. As usually defined, the Ki is a dissociation constant, usually derived from enzyme kinetics or from competition with a known ligand. As for `CCOc1nc2cccc(C(=O)O)c2n1Cc1ccc(-c2ccccc2-c2nnn[nH]2)cc1`, the IC50 result (in series [1]; in series [2]; in series [3]; in series [4]; in series [5] (reticulocytes); at Cytochrome P450 2A6) was “Not Active” in each case. Moreover, the Ki entry (in series [2]; in series [3]; in series [4]; at Cytochrome P450 2A6) was “Not Active” each time.

Regarding `O=C(O)CCCc1cccs1`, the half-inhibitory concentration (IC50) result (in series [1]; in series [2]; in series [3]; in series [4]; in series [5] (reticulocytes); on Cytochrome P450 2A6) was “Not Active” in each case. Besides, the inhibitory constant (Ki) result (in series [2]; in series [3]; in series [4]; at Cytochrome P450 2A6) was “Not Active” throughout.

For the compound `COc1ccccc1N`, the half-maximal inhibitory concentration (IC50) result in series [1] is “Not Active”; in series [2] it was “Not Active”; in series [3], “Not Active”; in series [4], “Not Active”; in series [5] (read-out: IC50), 2.05 µM; on Cytochrome P450 2A6 it was “Not Active”. Further, the inhibition constant (Ki) entry (in series [2]; in series [3]; in series [4]; at Cytochrome P450 2A6) was “Not Active” in each case.

As to `O=C(c1ccccc1F)N1CCC(Cc2ccccc2)CC1`, the IC50 entry (in series [1]; in series [2]; in series [3]; in series [4]; in series [5] (reticulocytes); on Cytochrome P450 2A6) was “Not Active” in each case. Also, the Ki result (in series [2]; in series [3]; in series [4]; on Cytochrome P450 2A6) was “Not Active” in each case.

Turning to `Cc1c(O)cccc1C(=O)N[C@@H](CSc1ccccc1)[C@H](O)CN1C[C@H]2CCCC[C@H]2C[C@H]1C(=O)NC(C)(C)C`, the IC50 entry is “Not Active” in series [1]; 14.6 µM in series [2] (read-out: IC50); “Not Active” in series [3]; “Not Active” in series [4]; 13.8 µM in series [5] (read-out: IC50); “Not Active” at Cytochrome P450 2A6. Further, the inhibitory constant (Ki) in series [2] (read-out: Ki) was 13 µM; in series [3] it was “Not Active”; in series [4] it was “Not Active”; at Cytochrome P450 2A6 it was “Not Active”.

Turning to `CC(O)COC[C@H]1O[C@@H]2O[C@H]3[C@H](O)[C@@H](O)[C@@H](O[C@H]4[C@H](O)[C@@H](O)[C@@H](O[C@H]5[C@H](O)[C@@H](O)[C@@H](O[C@H]6[C@H](O)[C@@H](O)[C@@H](O[C@H]7[C@H](O)[C@@H](O)[C@@H](O[C@H]8[C@H](O)[C@@H](O)[C@@H](O[C@H]1[C@H](O)[C@H]2O)O[C@@H]8COCC(C)O)O[C@@H]7COCC(C)O)O[C@@H]6COCC(C)O)O[C@@H]5COCC(C)O)O[C@@H]4COCC(C)O)O[C@@H]3COCC(C)O` (stereo partly drawn) [2-HYDROXYPROPYL-BETA-CYCLODEXTRIN], the IC50 result (in series [1]; in series [2]; in series [3]; in series [4]; in series [5] (reticulocytes); against Cytochrome P450 2A6) was “Not Active” in each case. In addition, the Ki entry (in series [2]; in series [3]; in series [4]; on Cytochrome P450 2A6) was “Not Active” in each case.

`NC(=O)c1cccc(N)c1` [3-AMINOBENZAMIDE]: the IC50 entry (in series [1]; in series [2]; in series [3]; in series [4]; in series [5] (reticulocytes); at Cytochrome P450 2A6) was “Not Active” throughout. Also, the inhibition constant (Ki) entry (in series [2]; in series [3]; in series [4]; at Cytochrome P450 2A6) was “Not Active” each time.

As for `C[C@H]1O[C@H](O[C@H]2[C@H](O)[C@@H](O)[C@@H](O[C@H]3[C@H](O)[C@@H](O)C(O)O[C@@H]3CO)O[C@@H]2CO)[C@H](O)[C@@H](O)[C@@H]1N[C@H]1C=C(CO)[C@@H](O)[C@H](O)[C@H]1O` (some centres not stated) [ACARBOSE], the IC50 entry (in series [1]; in series [2]; in series [3]; in series [4]; in series [5] (reticulocytes); against Cytochrome P450 2A6) was “Not Active” each time. The Ki entry (in series [2]; in series [3]; in series [4]; at Cytochrome P450 2A6) was “Not Active” throughout.

`CC[C@H]1[C@@H]2C[C@H]3[C@@H]4N(C)c5ccccc5[C@]45C[C@@H]([C@@H]2[C@H]5O)N3[C@@H]1O` [AJMALINE]: the IC50 entry (in series [1]; in series [2]; in series [3]; in series [4]; in series [5] (reticulocytes); at Cytochrome P450 2A6) was “Not Active” in each case. Moreover, the inhibition constant (Ki) result (in series [2]; in series [3]; in series [4]; at Cytochrome P450 2A6) was “Not Active” each time.

`NC12CC3CC(CC(C3)C1)C2` [AMANTADINE]: the concentration for half-maximal inhibition (IC50) result in series [1], in series [2], in series [3], in series [4] and in series [5] (reticulocytes) was “Not Active” in each case. The Ki result in series [2], in series [3] and in series [4] was “Not Active” each time.

Turning to `NCCCNCCSP(=O)(O)O` [AMIFOSTINE], the 50% inhibitory concentration (IC50) result (in series [1]; in series [2]; in series [3]; in series [4]; in series [5] (reticulocytes); against Cytochrome P450 2A6) was “Not Active” in each case. Further, the Ki result (in series [2]; in series [3]; in series [4]; on Cytochrome P450 2A6) was “Not Active” throughout.

With `CC(=O)OCC(=O)[C@@]12OC(C)(C)O[C@@H]1C[C@H]1[C@@H]3C[C@H](F)C4=CC(=O)C=C[C@]4(C)[C@@]3(F)[C@@H](O)C[C@@]12C` [FLUOCINONIDE], the IC50 entry in series [1], in series [2], in series [3], in series [4] and in series [5] (reticulocytes) was “Not Active” each time. The Ki result in series [2], in series [3] and in series [4] was “Not Active” throughout.

On to `N[C@@H](Cn1ccc(=O)c(O)c1)C(=O)O` [L-MIMOSINE], for which the IC50 entry in series [1], in series [2], in series [3], in series [4] and in series [5] (reticulocytes) was “Not Active” in each case. Moreover, the Ki entry in series [2], in series [3] and in series [4] was “Not Active” each time.

In the case of `C[C@@H]1C/C=C/C=C/C=C/C=C/[C@H](O[C@@H]2O[C@H](C)[C@@H](O)[C@H](N)[C@@H]2O)C[C@@H]2O[C@](O)(C[C@@H](O)C[C@H]3O[C@@H]3/C=C/C(=O)O1)C[C@H](O)[C@H]2C(=O)O` [NATAMYCIN], the half-maximal inhibitory concentration (IC50) entry in series [1], in series [2], in series [3], in series [4] and in series [5] (reticulocytes) was “Not Active” each time. The inhibition constant Ki entry in series [2], in series [3] and in series [4] was “Not Active” each time.
